According to patent publication US8598206B2, “Trypsin-like serine protease inhibitors, and their preparation and use” (The Medicines Company (Leipzig) GmbH, priority 2010, dated 2013):

Key:
Assay type in all cases: biochemical
[1] = biological target: human activated protein C (Homo sapiens (Human), UniProt P04070); test: Inhibition of human activated protein C; details: Pefachrome PCa substrate; read-out: h aPC Ki
Protocol: (§1) The inhibitory effect for the individual enzymes was determined in analogy to a previously disclosed method (Stürzebecher et al., J. Med. Chem., 40, 3091-3099 (1997)).
(§2) 200 μl of TBS (0.05 M trishydroxymethylaminomethane; 0.154 M NaCl, 2% ethanol, pH 8.0)
(§3) 2 μL of a test compound solution in 50% v/v DMSO/water
(§4) For zero order kinetics, the reaction was stopped after 20 min by adding 15 μl of acetic acid (80% v/v), and the absorption at 405 nm was determined using a Microplate Reader (Multiscan Ascent™, from Thermo). In the case of pseudo-first order kinetics, the reaction rates in the equilibrium state were determined by continuously recording the change in absorbance at 405 nm. The Ki values were calculated by parameter fitting in accordance with the rate equation for competitive inhibition using the GraFit software, version 4. The Ki values are the average of at least three determinations.

[2] = biological target: human Factor Xa (Homo sapiens (Human), UniProt P00742); test: Inhibition of human Factor Xa; details: Pefachrome FXa substrate; read-out: h FXa Ki
Protocol: The inhibitory effect for the individual enzymes was determined in analogy to a previously disclosed method (Stürzebecher et al., J. Med. […] In the case of pseudo-first order kinetics, the reaction rates in the equilibrium state were determined by continuously recording the change in absorbance at 405 nm. […] The Ki values are the average of at least three determinations. Human Factor Xa (h FXa): […]

[3] = biological target: human urinary kallikrein (Homo sapiens (Human), UniProt P06870); test: Inhibition of human urinary kallikrein; details: S-2266 substrate; read-out: h uKK Ki
Protocol: as §1, §2, §3, §4

[4] = biological target: human activated C1r complement component (Homo sapiens (Human), UniProt P00736); test: Inhibition of human C1r; details: S2314 substrate; read-out: h C1r Ki
Protocol: as §1, §2, §3, §4

[5] = biological target: human Factor XIa (Homo sapiens (Human), UniProt P03951); test: Inhibition of human Factor XIa; details: Pefachrome PCa substrate; read-out: h FXIa Ki
Protocol: as §1, §2, §3, §4

[6] = biological target: plasmin (Homo sapiens (Human), UniProt P00747); test: Determination of inhibition constants for human plasmin (chromogenic substrate); details: 25° C., Chromozym PL substrate; read-out: h plasmin Ki
Protocol: (§5) Determination of the Inhibition Constants for Human Plasmin (h Plasmin) and Human Plasma Kallikrein (h PK)
as §1, §2
(§6) 25 μl of substrate (4 mM, 2 mM and 1 mM tosyl-Gly-Pro-Lys-pNA=Chromozym PL from LOXO for plasmin and 3 mM, 1.5 mM and 1 mM H-D-Pro-Phe-Arg-pNA=S2302 from Chromogenix for PK, dissolved in H2O)
as §3
(§7) 50 μl of enzyme solution (plasmin from Calbiochem: 1.7 mU/ml in 0.154 M NaCl+0.1% BSA m/v; plasma kallikrein from Enzyme Research Lab.: 62 ng/ml in 0.154 M NaCl+0.1% BSA m/v)
as §4

[7] = biological target: human alpha-thrombin (Homo sapiens (Human), UniProt P00734); test: Inhibition of human Factor IIa; details: Pefachrome tPA substrate; read-out: h FIIa Ki
Protocol: as §1, §2, §3, §4

[8] = biological target: human activated C1s complement component (Homo sapiens (Human), UniProt P09871); test: Inhibition of human C1s; details: S2314 substrate; read-out: h C1s Ki
Protocol: as §1, §2, §3, §4
Subcomponent “s” of Human Complement Component 1 (h C1s): Inhibition of human C1s was determined by the method described in [0092]-[0098] using native human activated C1s complement component from Calbiochem at 29 nM and Val-Ser-Arg-pNA (S2314) at 8 mM, 6 mM, and 4 mM as substrate; results are reported as Ki values (nanomolar).

[9] = biological target: plasma kallikrein (Homo sapiens (Human), UniProt P03952); test: Determination of inhibition constants for human plasma kallikrein (chromogenic substrate); details: 25° C., S2302 substrate; read-out: h PK Ki
Protocol: as §5, §1, §2, §6, §3, §7, §4

[10] = biological target: human alpha-FXIIa (Homo sapiens (Human), UniProt P00748); test: Inhibition of human alpha-Factor XIIa; details: CHA-Gly-Arg-pNA substrate; read-out: h FXIIa Ki
Protocol: as §1, §2, §3, §4

[11] = biological target: human t-PA (Homo sapiens (Human), UniProt P00750); test: Inhibition of human tissue-type plasminogen activator; details: Pefachrome tPA substrate; read-out: h t-PA Ki
Protocol: as §1, §2, §3, §4

plasma kallikrein, sequence (P03952 391-638): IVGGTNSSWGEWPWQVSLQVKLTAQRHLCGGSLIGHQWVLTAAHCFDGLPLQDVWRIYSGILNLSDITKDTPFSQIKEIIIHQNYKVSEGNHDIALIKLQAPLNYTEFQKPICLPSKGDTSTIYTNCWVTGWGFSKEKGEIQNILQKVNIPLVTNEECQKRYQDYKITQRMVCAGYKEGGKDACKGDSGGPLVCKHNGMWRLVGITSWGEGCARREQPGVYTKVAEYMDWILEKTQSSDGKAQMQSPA
plasma kallikrein, sequence (P03952 20-390 partner): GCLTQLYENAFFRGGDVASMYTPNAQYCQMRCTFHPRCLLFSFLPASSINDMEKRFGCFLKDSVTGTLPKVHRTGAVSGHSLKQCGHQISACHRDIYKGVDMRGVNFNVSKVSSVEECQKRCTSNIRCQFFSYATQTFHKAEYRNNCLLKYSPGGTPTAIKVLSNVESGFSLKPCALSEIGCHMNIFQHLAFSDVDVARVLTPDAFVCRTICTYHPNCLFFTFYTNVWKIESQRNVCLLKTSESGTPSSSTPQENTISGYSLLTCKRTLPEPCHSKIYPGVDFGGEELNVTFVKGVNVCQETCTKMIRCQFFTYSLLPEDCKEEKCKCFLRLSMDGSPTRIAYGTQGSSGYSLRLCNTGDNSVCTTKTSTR
human Factor XIa, sequence (P03951 388-625): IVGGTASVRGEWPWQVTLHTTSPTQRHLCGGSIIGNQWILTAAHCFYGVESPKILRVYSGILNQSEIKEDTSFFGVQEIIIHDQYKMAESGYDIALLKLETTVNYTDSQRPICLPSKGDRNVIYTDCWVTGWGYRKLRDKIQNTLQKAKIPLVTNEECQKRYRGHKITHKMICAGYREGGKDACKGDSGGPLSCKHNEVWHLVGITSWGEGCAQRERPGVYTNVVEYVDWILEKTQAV
human Factor XIa, sequence (P03951 19-387 partner): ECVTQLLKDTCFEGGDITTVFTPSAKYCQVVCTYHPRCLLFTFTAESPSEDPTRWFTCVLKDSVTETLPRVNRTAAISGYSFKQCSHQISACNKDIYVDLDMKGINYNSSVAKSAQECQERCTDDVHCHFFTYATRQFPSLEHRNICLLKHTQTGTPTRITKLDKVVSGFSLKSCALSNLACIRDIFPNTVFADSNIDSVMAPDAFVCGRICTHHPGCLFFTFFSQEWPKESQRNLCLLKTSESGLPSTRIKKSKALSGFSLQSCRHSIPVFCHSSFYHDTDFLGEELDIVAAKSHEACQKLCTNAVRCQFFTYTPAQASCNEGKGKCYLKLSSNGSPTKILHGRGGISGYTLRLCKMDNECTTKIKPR
human activated protein C, sequence (P04070 212-450): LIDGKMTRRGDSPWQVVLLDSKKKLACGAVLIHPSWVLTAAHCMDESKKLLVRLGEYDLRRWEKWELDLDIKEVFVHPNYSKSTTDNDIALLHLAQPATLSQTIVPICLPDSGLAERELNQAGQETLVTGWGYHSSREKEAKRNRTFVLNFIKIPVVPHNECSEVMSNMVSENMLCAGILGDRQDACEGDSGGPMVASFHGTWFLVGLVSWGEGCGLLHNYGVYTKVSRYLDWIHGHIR
human activated protein C, sequence (P04070 43-197 partner): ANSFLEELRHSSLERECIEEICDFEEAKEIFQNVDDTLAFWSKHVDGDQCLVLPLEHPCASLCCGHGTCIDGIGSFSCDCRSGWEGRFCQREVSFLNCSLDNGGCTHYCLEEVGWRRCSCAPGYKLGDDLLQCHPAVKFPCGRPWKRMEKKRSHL
plasmin, sequence (P00747 581-810): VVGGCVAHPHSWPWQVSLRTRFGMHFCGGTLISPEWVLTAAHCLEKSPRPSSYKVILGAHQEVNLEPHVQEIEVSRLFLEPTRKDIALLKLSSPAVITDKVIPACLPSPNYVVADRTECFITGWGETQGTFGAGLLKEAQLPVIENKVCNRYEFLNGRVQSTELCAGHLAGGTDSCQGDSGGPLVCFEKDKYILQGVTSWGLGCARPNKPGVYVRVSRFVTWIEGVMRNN
plasmin, sequence (P00747 97-580 partner): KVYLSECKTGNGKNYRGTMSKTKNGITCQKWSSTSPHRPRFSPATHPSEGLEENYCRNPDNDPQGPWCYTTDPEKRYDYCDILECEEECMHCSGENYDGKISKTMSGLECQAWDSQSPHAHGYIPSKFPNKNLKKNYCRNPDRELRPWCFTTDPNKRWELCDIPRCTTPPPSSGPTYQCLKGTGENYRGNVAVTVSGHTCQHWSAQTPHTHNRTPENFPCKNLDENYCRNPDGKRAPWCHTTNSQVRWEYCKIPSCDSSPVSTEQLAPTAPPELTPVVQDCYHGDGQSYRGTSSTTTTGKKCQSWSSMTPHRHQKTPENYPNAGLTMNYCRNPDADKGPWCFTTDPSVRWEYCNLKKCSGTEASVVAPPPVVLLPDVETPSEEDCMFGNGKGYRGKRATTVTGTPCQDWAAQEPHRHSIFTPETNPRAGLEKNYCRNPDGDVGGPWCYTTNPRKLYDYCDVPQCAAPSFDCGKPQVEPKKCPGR
human alpha-FXIIa, sequence (P00748 373-615): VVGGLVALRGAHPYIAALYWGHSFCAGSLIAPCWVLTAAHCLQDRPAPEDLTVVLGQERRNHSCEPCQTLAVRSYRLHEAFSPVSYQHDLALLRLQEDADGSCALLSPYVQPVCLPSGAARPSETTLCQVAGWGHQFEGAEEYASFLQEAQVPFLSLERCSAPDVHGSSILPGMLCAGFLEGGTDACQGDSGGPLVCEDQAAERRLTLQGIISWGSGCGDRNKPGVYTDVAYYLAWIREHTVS
human alpha-FXIIa, sequence (P00748 20-372 partner): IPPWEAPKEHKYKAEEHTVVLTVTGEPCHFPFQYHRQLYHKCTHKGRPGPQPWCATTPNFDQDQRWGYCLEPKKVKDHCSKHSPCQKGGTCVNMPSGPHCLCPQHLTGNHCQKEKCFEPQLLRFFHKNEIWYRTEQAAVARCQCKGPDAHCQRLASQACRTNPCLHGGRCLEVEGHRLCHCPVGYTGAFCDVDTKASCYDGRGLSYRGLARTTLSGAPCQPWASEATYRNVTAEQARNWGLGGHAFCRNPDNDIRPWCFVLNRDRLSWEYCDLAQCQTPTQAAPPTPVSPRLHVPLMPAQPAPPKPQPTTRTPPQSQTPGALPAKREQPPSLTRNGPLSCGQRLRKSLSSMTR
human activated C1s complement component, sequence (P09871 438-688): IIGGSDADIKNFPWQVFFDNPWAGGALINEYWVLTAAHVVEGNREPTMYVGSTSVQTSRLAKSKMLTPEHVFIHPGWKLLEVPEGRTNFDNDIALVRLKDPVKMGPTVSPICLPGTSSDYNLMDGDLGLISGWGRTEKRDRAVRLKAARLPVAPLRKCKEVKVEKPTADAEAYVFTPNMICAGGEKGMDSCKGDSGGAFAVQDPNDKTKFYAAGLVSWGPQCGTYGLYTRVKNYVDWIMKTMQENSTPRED
human activated C1s complement component, sequence (P09871 16-437 partner): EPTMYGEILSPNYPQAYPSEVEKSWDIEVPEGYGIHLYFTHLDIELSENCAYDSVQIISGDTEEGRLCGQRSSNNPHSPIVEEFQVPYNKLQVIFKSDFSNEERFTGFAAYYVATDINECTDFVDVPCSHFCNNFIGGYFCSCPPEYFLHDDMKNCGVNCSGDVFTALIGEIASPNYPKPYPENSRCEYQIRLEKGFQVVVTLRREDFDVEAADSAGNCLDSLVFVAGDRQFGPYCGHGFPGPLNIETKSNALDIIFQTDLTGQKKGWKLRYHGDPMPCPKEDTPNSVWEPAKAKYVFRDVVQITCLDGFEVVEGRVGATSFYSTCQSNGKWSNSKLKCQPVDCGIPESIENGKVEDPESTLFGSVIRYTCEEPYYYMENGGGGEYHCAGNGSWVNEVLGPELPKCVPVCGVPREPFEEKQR
human t-PA, sequence (P00750 36-562): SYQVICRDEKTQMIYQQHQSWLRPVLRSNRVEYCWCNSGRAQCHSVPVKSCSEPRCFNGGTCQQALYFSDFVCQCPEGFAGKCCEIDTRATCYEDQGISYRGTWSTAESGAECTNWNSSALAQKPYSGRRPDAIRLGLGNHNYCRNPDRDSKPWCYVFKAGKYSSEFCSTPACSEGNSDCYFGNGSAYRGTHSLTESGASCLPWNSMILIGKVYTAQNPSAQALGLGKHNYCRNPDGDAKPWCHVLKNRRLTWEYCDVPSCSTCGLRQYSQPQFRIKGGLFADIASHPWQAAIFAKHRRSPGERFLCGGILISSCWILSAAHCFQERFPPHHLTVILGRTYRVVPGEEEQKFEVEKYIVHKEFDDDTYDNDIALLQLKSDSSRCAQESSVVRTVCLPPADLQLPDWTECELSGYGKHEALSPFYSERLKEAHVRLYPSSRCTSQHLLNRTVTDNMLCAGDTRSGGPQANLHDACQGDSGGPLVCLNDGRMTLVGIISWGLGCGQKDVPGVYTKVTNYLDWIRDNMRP
human urinary kallikrein, sequence (P06870 25-262): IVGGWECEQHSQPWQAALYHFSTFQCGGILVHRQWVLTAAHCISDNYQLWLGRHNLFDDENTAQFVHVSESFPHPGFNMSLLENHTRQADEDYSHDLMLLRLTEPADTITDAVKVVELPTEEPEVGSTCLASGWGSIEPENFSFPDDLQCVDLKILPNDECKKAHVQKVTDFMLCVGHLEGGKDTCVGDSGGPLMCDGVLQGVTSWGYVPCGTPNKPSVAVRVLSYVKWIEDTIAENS
human Factor Xa, sequence (P00742 235-488): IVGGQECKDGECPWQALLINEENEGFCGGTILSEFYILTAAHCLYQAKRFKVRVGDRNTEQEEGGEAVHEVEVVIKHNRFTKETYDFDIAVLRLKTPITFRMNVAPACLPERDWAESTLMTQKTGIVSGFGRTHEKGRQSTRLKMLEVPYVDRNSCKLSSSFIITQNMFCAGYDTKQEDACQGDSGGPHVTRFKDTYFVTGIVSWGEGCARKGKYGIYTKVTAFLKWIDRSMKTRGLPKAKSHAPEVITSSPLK
human Factor Xa, sequence (P00742 41-179 partner): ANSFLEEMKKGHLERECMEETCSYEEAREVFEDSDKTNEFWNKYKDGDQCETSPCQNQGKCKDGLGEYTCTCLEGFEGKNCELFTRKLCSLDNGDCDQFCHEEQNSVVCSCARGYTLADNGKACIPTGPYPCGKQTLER

| Compound | Ki [1] [nM] | Ki [2] [nM] | Ki [3] [nM] | Ki [4] [nM] | Ki [5] [nM] | Ki [6] [nM] | Ki [7] [nM] | Ki [8] [nM] | Ki [9] [nM] | Ki [10] [nM] | Ki [11] [nM] |
| --- | --- | --- | --- | --- | --- | --- | --- | --- | --- | --- | --- |
| N=C(N)c1ccc(CNC(=O)[C@H](CCC2CCNCC2)NC(=O)[C@@H](CCCc2ccccc2)NS(=O)(=O)Cc2cccc(C(=O)O)c2)cc1 | 310 | 2400 | > 20000 | > 20000 | 70 | 3.8 | 4400 | 1200 | 3 | – | – |
| CC(=O)N1CCC(CC[C@@H](NS(=O)(=O)Cc2ccccc2)C(=O)N[C@@H](CCC2CCNCC2)C(=O)NCc2ccc(C(=N)N)cc2)CC1 | 1200 | 1900 | > 20000 | > 40000 | 1400 | 1.8 | 8000 | > 20000 | 5 | 530 | 4800 |
| N=C(N)c1ccc(CNC(=O)[C@H](CCC2CCNCC2)NC(=O)[C@@H](CCCn2cnnn2)NS(=O)(=O)Cc2ccccc2)cc1 | 1300 | 2400 | > 200000 | – | 1400 | 8 | 4700 | > 10000 | 5.3 | – | – |
| N=C(N)c1ccc(CNC(=O)[C@H](CCC2CCNCC2)NC(=O)[C@@H](CCC2CCNCC2)NS(=O)(=O)Cc2ccccc2)cc1 | 60 | 90 | > 100000 | > 100000 | 1400 | 3 | 4200 | > 25000 | 7.5 | – | – |
| N=C(N)c1ccc(CNC(=O)[C@H](CCC2CCNCC2)NC(=O)[C@H](NS(=O)(=O)Cc2ccccc2)c2ccccc2)cc1 | 210 | 1600 | – | – | 1000 | 2.2 | 1700 | – | 20 | – | – |
| CC(=O)N1CCC(CCC[C@@H](NS(=O)(=O)Cc2ccccc2)C(=O)N[C@@H](CCC2CCNCC2)C(=O)NCc2ccc(C(=N)N)cc2)CC1 | 1100 | 750 | > 500000 | > 100000 | 870 | 1.5 | 3800 | 9000 | 2 | 630 | 3000 |
| N=C(N)c1ccc(CNC(=O)[C@H](CCC2CCNCC2)NC(=O)[C@@H](CCC2CCN(C(=O)C3CC3)CC2)NS(=O)(=O)Cc2ccccc2)cc1 | 1500 | 2300 | > 50000 | > 50000 | 650 | 0.6 | 8500 | 19000 | 0.3 | 1100 | 6100 |
| N=C(N)c1ccc(CNC(=O)[C@H](CCC2CCNCC2)NC(=O)[C@@H](CCc2ccncc2)NS(=O)(=O)Cc2ccccc2)cc1 | 27 | 20 | > 200000 | > 20000 | 500 | 1.5 | 3900 | 2000 | 9 | – | – |
| CCCC(=O)N1CCC(CC[C@@H](NS(=O)(=O)Cc2ccccc2)C(=O)N[C@@H](CCC2CCNCC2)C(=O)NCc2ccc(C(=N)N)cc2)CC1 | 1100 | 2200 | > 200000 | > 15000 | 870 | 0.6 | 5500 | > 10000 | 2 | 800 | 6100 |
